Data reported in publication PMC6885504 (American Journal of Cardiovascular Drugs, 2019).
“Also recorded” adds a separate entry of the source. Where two headings read alike, the source gives them in different places.

Legend:
CYP3A4 = conditions: cited from earlier work
Safety assessments = type: in vivo, human; conditions: for safety and tolerability: apixaban 10 mg alone and in combination with clarithromycin IR 500 mg bid, healthy adults
[1] = type: in vivo, human
[2] = cited from earlier work
[3] = cited from earlier work; remark: listed apart in the source
[4] = during treatment with the agent alone, of 19 subjects
[5] = coadministered with multiple doses of clarithromycin vs apixaban alone
[6] = whole study (apixaban alone, clarithromycin alone, both together)

CC(=O)N1CCN(c2ccc(OCC3COC(Cn4ccnc4)(c4ccc(Cl)cc4Cl)O3)cc2)CC1 (stereo not shown) [ketoconazole]
increase in AUC of midazolam (CYP3A4; ketoconazole as inhibitor): 420–1500%

CC[C@H]1OC(=O)[C@H](C)[C@@H](O[C@H]2C[C@@](C)(OC)[C@@H](O)[C@H](C)O2)[C@H](C)[C@@H](O[C@@H]2O[C@H](C)C[C@H](N(C)C)[C@H]2O)[C@](C)(OC)C[C@@H](C)C(=O)[C@H](C)[C@@H](O)[C@]1(C)O [clarithromycin]
subjects reporting at least one AE (Safety assessments; [4]): 42.1% | subjects with AEs considered related to study drug (Safety assessments; [4]): 26.3% | increase in AUC of midazolam (CYP3A4; clarithromycin as inhibitor): 260–860%

COc1ccc(-n2nc(C(N)=O)c3c2C(=O)N(c2ccc(N4CCCCC4=O)cc2)CC3)cc1 [Apixaban]
increase in apixaban AUC(0–T) [1, 5]: 60% | increase in apixaban AUC(INF) [1, 5]: 60% | increase in apixaban Cmax [1, 5]: 30% | time at which apixaban reached maximum concentration after dosing ([1]; concentration–time profiles day 1 and day 8 (Fig. 2)): 3 h | safety and tolerability (Safety assessments): Apixaban 10 mg alone and in combination with twice-daily clarithromycin immediate release 500 mg was safe and generally well-tolerated by healthy adult volunteers. | safety and tolerability (Safety assessments; listed as apixaban): safe and generally well-tolerated | subjects experiencing additional AEs (Safety assessments; apixaban and clarithromycin together, of 18 subjects): 22.2% | subjects reporting at least one AE (Safety assessments; [4]): 5.3% | bleeding-related AEs, deaths, serious AEs (Safety assessments; [6]): no bleeding-related AEs, deaths, or serious AEs | intensity of adverse events (Safety assessments; [6]): mild | change in apixaban exposure ([2]; coadministered with ketoconazole vs apixaban alone): approximately doubled; also recorded: twofold | decrease in apixaban exposure ([2]; coadministered with rifampin vs apixaban alone): 50% | half-life [3]: 12 h | oral bioavailability [3]: ~50% | renal clearance as share of total systemic clearance [3]: ~27%
